Source: US20220387412A1, “Novel Superebastine Against Therapy Resistant Prostate Cancer” (University of Kentucky Research Foundation, priority 2019, published 2022)
“Also recorded” adds a separate entry of the source.

What was measured:
Assay type in all cases: cell-based
PC-3 cells = test: Resazurin cell viability assay, PC-3; details: for cell viability (resazurin): PC-3, 10 μM
Procedure: (§1) Mean+SD shown. (*) Asterisk indicates […] by the Student's t-test.
(§2) Cell viability was then measured by resazurin assays. […] On the other hand, Super-EBS (10 μM) was effective in 24 hours. […] Mean+SD are shown. P<0.01 by Student's t-test.

LNCaP cells = test: Western blot for γH2AX (Ser139), DNA double stranded breaks, LNCaP; details: 0.25 or 0.5 μM, 24 h
Procedure: (§3) FIGS. 7A-B show images illustrating that Super-EBS induces DNA damage in AR-positive prostate cancer cells. (A) C4-2 cells were treated with Super-EBS (0.5 or 1 μM) for 24 h in 10% FBS containing medium. […] Lysates were probed for YH2AX (Ser139 phosphorylation), a marker for DSB by Western blot analysis.
(§4) Super-EBS induces DNA damage in AR-positive prostate cancer cells. Lysates from AR-positive androgen-independent C4-2 cells (FIG. 7A) or androgen-dependent LNCaP cells (FIG. 7B) were treated with Super-EBS and subjected to Western blot analysis for γH2AX (Ser 139) positivity to detect DNA double stranded breaks (DSB). Super-EBS induced DSBs in both C4-2 and LNCaP cells (FIGS. 7A-B).

prostate cancer cells = test: Growth inhibition / cell death of prostate cancer cell cultures; details: for cell death: within 24 h
Source text: RAGE activation promotes proliferation, invasive bone homing, and metastasis of PCa cells.

CwR22Rv1 Enz(R) cells = test: Annexin V-PI staining and FACS analysis for apoptotic cells; details: 2 or 4 μM, 24 h
Procedure: CwR22Rv1 Enz(R) cells were treated with Super-EBS (2 or 4 μM) for 24 h in 10% FBS containing medium. Live cells were subjected to Annexin V-PI staining and FACS analysis for apoptotic cells. The percentage on the figure indicates the percentage of cells post treatment.
(§5) Super-EBS causes cell death by the activation of an apoptotic cascade. […] CwR22Rv1 Enz(R) cells were also tested with Super-EBS for 24 h and subjected to FACS analysis using Annexin V and propidium iodide (PI) staining.

[1] = tested on: CWR22Rv1 ENZ-sensitive cells; test: Resazurin cell viability assay, CWR22Rv1 ENZ-sensitive; details: CWR22Rv1 ENZ-sensitive, 24, 48 and 72 hours
Procedure: as §1, §2

C4-2 cells = test: Western blot for γH2AX (Ser139), DNA double stranded breaks, C4-2; details: C4-2, 0.5 or 1 μM, 24 h
Procedure: as §3, §4

[2] = tested on: CWR22Rv1 ENZ-resistant cells; test: Resazurin cell viability assay, CWR22Rv1 ENZ-resistant; details: CWR22Rv1 ENZ-resistant, 24, 48 and 72 hours
Procedure: as §1, §2

[3] = tested on: CWR22Rv1 ENZ-resistant cells; test: ICC for active caspase 3 (apoptosis), CWR22Rv1 ENZ-resistant; details: 0.1-5 μM, 24 hours
Procedure: (§6) FIGS. 5A-B show images and graphs illustrating that Super-EBS causes cell death by the activation of an apoptotic cascade. (A) AR-v7 expressing CwR22Rv1 and CwR22Rv1 Enz(R) cells were treated with Super-EBS (0.1-5 μM) in 10% FBS for 24 h and tested by ICC analysis for cleaved caspase 3 (green) and DAPI (blue). (B) Quantitative representation of ICC data. *P<0.05; **P<0.01 by Student's t test.
(§7) After determining that the cells were sensitive to Super-EBS, they were tested to determine whether Super-EBS inhibited cell viability by inducing apoptosis. CWR22Rv1 ENZ-sensitive and CWR22Rv1 ENZ-resistant cell lines were treated with vehicle, 0.1-, 0.5-, 1- and 5-μM of Super-EBS for 24 hours. The cells were then subjected to immunocytochemical (ICC) analysis for active caspase 3 (green fluorescence) to detect apoptotic cells, and 4, 6-diamidino-2-phenylindole (DAPI) staining (blue fluorescence) to reveal the cell nucleus. Cells were scored for apoptosis under a confocal microscope and percent apoptosis was calculated. […] Mean+SD are shown. P<0.01 by Student's t-test.
as §5

[4] = tested on: CwR22Rv1 Par-4 knock-down cells; test: γH2AX ICC / Western blot in Par-4 wild type and knock-down cells; details: CwR22Rv1, 0.25 μM, 24 h
Procedure: FIGS. 8A-B show images illustrating that DNA damage induced by Super-EBS is mediated by Par-4. (A) CwR22Rv1 Par-4 wild type and knock-down cells were treated with Super-EBS (0.25 μM) for 24 h in medium containing 10% FBS, and then subjected to ICC for Par-4 (green) or YH2AX (Ser139) (red). (B) Western blot analysis for YH2AX, Par-4 and GAPDH was performed on lysates of Par-4 wild type (left) and knock-down (right) prostate cancer cells treated with Super-EBS (0.25 μM) for 24 h.
DNA damage induced by Super-EBS is mediated by Par-4.

[5] = tested on: CWR22Rv1 ENZ-sensitive cells; test: ICC for active caspase 3 (apoptosis), CWR22Rv1 ENZ-sensitive; details: 0.1-5 μM, 24 hours
Procedure: as §6, §7, §5

[6] = tested on: C4-2, C4-2R, LNCaP and M49C cells; test: Resazurin cell viability assay, AR-positive cells and drug resistant counterparts; details: 24 h, 10% FBS
Procedure: FIGS. 4A-B show graphs illustrating viability of androgen independent and androgen dependent cells treated with Super-EBS. (A) Androgen independent AR-positive C4-2 and C4-2R were treated with Super-EBS and vehicle control for 24 h in 10% FBS. Cell viability was measured by Resazurin assay. (B) Androgen dependent AR-positive LNCaP and M49C were treated under same condition and cell viability by Resazurin assay. *P<0.05; ** P<0.01 by the Student's t test.
In particular, cell viability of the AR-positive prostate cancer cells and their drug resistant counterparts was lower for the cells treated with Super-EBS.

Row | Compound | cell viability (resazurin) (PC-3 cells; 72 hours) | DNA double stranded breaks (γH2AX Ser139) (LNCaP cells) | concentration inducing apoptosis and growth inhibition (prostate cancer cells; ENZ-resistant as well as ENZ-sensitive prostate cancer cells) | cell death (prostate cancer cells; ENZ-resistant prostate cancer cell cultures) | cell death (prostate cancer cells; ENZ-sensitive prostate cancer cell cultures) | potency in killing cells compared with EBS (prostate cancer cells; parental and ENZ-resistant prostate cancer cell lines) | cells in the early and late stages of apoptosis (Annexin V/PI FACS) (CwR22Rv1 Enz(R) cells) | cell viability (resazurin), effective concentration [1] | DNA double stranded breaks (γH2AX Ser139) (C4-2 cells) | cell viability (resazurin), effective concentration [2] | cell viability (resazurin) (PC-3 cells; 24 hours) | cell viability (resazurin), effective concentration (PC-3 cells; PC-3, 24, 48 and 72 hours) | apoptosis (active caspase 3 ICC) relative to vehicle control [3] | γH2AX positivity after Par-4 knock-down [4] | apoptosis (active caspase 3 ICC) relative to vehicle control [5] | cytotoxic effect compared with EBS ([6]; 10 μM) | susceptibility of LNCaP and M49C versus C4-2 and C4-2R to cytotoxic action [6]
1 | CC(C)(C)c1ccc(C(=O)CCCN2CCC(OC(c3ccccc3)c3ccccc3)CC2)cc1 [EBS, 4-[4-(Diphenylmethoxy)-1-piperidinyl]-1-[4-(2-methyl-2-propanyl)phenyl]-1-butanone, reference compound] | sensitive | but not EBS induced significant amount of DSBs |  |  |  |  |  |  |  |  |  |  |  |  |  |  | 
2 | CC(C)(C)c1ccc(/C(CCCN2CCC(OC(c3ccccc3)c3ccccc3)CC2)=N\C(=N)N)cc1 [Super-EBS] |  | induced DSBs | nanomolar concentrations | 95-98% | 95-98% | more potent than EBS | dose dependent increase | effective at nanomolar concentrations | induced DSBs | effective at nanomolar concentrations | effective | effective at nanomolar concentrations | significantly higher levels; also recorded: dose dependent increase in apoptotic cells | decrease in the YH2AX positivity | significantly higher levels; also recorded: dose dependent increase in apoptotic cells | more pronounced than EBS | more susceptible
